The source of these data is EP2186507A2, “A liquid pharmaceutical formulation comprising nicotine for the administration to the oral cavity” (McNeil AB, priority 2001, dated 2003).

Like-named read-outs stand apart in the source and are kept apart here.

On series [1], the source says:
Absorption of nicotine from the oral cavity to the systemic circulation is dependent on the pH of the saliva and the pKa of nicotine, which is about 7.8. Assuming a pH of the saliva of 6.8 only about 10% of the nicotine in saliva will be in the free base form. Thus, in order to promote absorption of nicotine in a free base form, which is the form predominantly absorbed through the mucosa, the pH of the saliva must be increased. At a pH of 8.8 about 90% of the nicotine in saliva will then be in the free base form.

The conditions of series [2]: Merck Index; cited from earlier work.

In the case of `CN1CCCC1c1cccnc1` (stereo not drawn) [nicotine, 3-(1-methyl-2-pyrrolidinyl)-pyridine], the “nicotine in saliva in the free base form” value was “about 10%” in series [1] (assuming a pH of the saliva of 6.8) and “about 90%” in series [1] (at a pH of 8.8). Further, the “amount that may kill an adult” value in series [2] is “Approximately forty”.
